According to patent publication US20140057895A1, “INDAZOLE- AND PYRROLOPYRIDINE-DERIVATIVE AND PHARMACEUTICAL USE THEREOF” (priority 2011, published 2014):
pEC50, pIC50: −log10 of the molar value. Where a name gives a salt, the structure may show the parent alone.

How the values were obtained:
human 5-HT4b receptor [1] = molecular target: T1, human 5-HT4b receptor (Homo sapiens, UniProt Q13639); assay: Test Example 2: Serotonin 4 (5-HT4) receptor agonist activity assay, cAMP HTRF in CHO cells (Table 97); type: cell-based; details: cAMP in CHO cells expressing human 5-HT4b receptor, mean value; for Emax: 0.25 h, intrinsic activity, maximal activity of 5-HT defined as 100%, read-out: IA (%); for pEC50: concentration showing 50% of IA
T1 construct: expressed in transfected cells; host or cells: CHO cells (G418 selection)
T1 sequence (Q13639 whole entry): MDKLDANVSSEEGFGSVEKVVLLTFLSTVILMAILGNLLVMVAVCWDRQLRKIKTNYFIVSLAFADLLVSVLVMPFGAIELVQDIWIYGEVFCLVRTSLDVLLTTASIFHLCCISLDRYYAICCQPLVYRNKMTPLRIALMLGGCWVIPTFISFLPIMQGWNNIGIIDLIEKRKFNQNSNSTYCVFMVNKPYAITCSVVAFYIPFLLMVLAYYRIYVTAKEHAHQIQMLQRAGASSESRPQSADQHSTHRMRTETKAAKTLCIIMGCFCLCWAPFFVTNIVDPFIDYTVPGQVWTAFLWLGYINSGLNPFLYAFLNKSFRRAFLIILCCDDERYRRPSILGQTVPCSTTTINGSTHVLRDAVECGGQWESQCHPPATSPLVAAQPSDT
Experimental: The cAMP measurement test used herein was carried out by using CISBIO HTRF (trademark) cAMP Hirange kit according to the manufacturer's instructions attached therewith.
CHO cells expressing human 5-HT4b receptor were incubated in Medium 1 [DMEM/1% NEAA, 1% penicillin/streptomycin (P/S), 0.2 mg/mL GENETICIN (G418), 10% FBS] at 37° C. under 5% CO2 condition. Then, the cells were put into Medium 2 (DMEM/10000 cut FBS, G-418, P/S, NEAA) for 1 to 2 hours, and collected by treating with trypsin containing EDTA. The collected cells were suspended in Assay Buffer 1 [100 mM Hanks/HEPES buffer (pH 7.4)], the suspended cells were mixed with the testing compound on 384-well plates, and the cells were incubated at 31° C. for 15 minutes. To the cells were added cAMP-cryptate solution and cAMP-d2 solution, and they were incubated at room temperature for 1 hour. Then, time-resolved fluorescence was measured by En Vision (excitation wavelength: 330 nm, fluorescence wavelength: 620/665 nm). An intrinsic activity of the compound [IA (%)] and a concentration showing 50% of IA [EC50 (nM)] were calculated from the obtained results. In particular, the intrinsic activity (IA) was calculated on the basis of the maximal activity of 5-HT (measured from 10^−11 M to 10^−7 M) defined as 100%.
(§1) In the following table, the compounds used in the test are shown in numbers which correspond to the Example numbers above where the preparations of the compounds are described.

5-HT4 receptor [2] = molecular target: T2, 5-HT4 receptor (Cavia porcellus, UniProt O70528); assay: Test Example 1: Serotonin 4 (5-HT4) receptor binding assay, [3H]-GR113808, guinea pig striatum membranes (Table 96); details: Guinea pig 5-HT4 receptor binding assay, [3H]-GR113808, striatum membranes; mean value of each group
T2 construct: striatum was isolated which was cryopreserved at −80° C. until use; from tissue; host or cells: guinea pig (Slc-Hartley) striatum membranes
T2 sequence (O70528 whole entry): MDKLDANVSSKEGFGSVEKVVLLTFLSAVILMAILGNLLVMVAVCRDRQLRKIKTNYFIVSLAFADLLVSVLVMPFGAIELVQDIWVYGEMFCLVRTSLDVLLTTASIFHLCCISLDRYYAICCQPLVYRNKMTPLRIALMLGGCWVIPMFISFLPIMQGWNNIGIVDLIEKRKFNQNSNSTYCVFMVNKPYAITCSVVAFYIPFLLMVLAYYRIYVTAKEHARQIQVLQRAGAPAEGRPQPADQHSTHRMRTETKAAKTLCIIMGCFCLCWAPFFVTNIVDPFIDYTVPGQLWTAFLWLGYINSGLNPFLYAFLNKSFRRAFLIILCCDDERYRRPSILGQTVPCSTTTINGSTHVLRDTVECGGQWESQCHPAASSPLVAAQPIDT
Experimental: The 5-HT4 receptor binding assay and preparations of receptor membrane preparations herein were carried out according to a method of Grossman et al. [see, British J. Pharmacol., (1993) 109, 618].
Slc-Hartley guinea pigs (body weight 300 g to 400 g) were decapitated to remove brain rapidly, and striatum was isolated which was cryopreserved at −80° C. until use. To the obtained tissues were added fifteen fold of Hepes buffer (50 mM, pH 7.4, 4° C.), and the mixture was homogenized by Teflon (trademark) homogenizer and centrifuged at 48,000×g (4° C.) for 15 minutes. To the resulting precipitate was added Hepes buffer (1 ml) to 30 mg by wet weight of tissues, and the mixture was suspended to give receptor membrane preparations.
To an assay tube were added 0.1 nM [^3H]-GR113808 {chemical name: [1-[2-(methylsulfonylamino)ethyl]-4-piperidinyl]methyl 1-methylindole-3-carboxylate}, receptor membrane preparations, and Hepes buffer (50 mM, pH 7.4, 4° C., 1 ml) containing test compounds or 30 μM serotonin; and the mixture was incubated at 37° C. for 30 minutes. On quenching the reaction, the mixture was rapidly filtered on whatman GF/B filter, which was presoaked in 0.1% polyethyleneimine for 1 hour, by using Brandel cell Harvester, and washed with ice-cooled 50 mM Tris-HCl (pH 7.7, 4 ml) three times. To the filter after filtration was added a liquid scintillator (Ecoscint), and then a radioactivity was determined by a liquid scintillation counter.
50% Inhibition concentrations (IC50) were determined from inhibition rates of test compounds to specific bindings which were obtained by subtracting nonspecific bindings from total binding amounts of [^3H]-GR113808.
as §1

human 5-HT4b receptor [3] = molecular target: T1, human 5-HT4b receptor; assay: Test Example 4: Serotonin 4 (5-HT4) receptor agonist activity assay, cAMP HTRF in CHO cells (Table 100); type: cell-based; details: mean value; for Emax: CHO, 0.25 h, intrinsic activity, maximal activity of 5-HT defined as 100%, read-out: IA (%); for pEC50: concentration showing 50% of IA
Procedure, shortened: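 Read-out is HTRF cAMP (time-resolved fluorescence 620/665 nm after 1 h RT with cAMP-cryptate and cAMP-d2), from recombinant CHO cells bearing human 5-HT4b treated with compound 15 min at 31° C. in Hanks/HEPES buffer pH 7.4. IA (%) scaled to peak 5-HT effect over 10^−11–10^−7 M; EC50 is concentration giving half that IA.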

5-HT4 receptor [4] = molecular target: T2, 5-HT4 receptor; assay: Test Example 3: Guinea pig 5-HT4 receptor binding assay, [3H]-GR113808, striatum membranes (Table 98); details: Guinea pig 5-HT4 receptor binding assay, [3H]-GR113808, striatum membranes; mean value of each group; read-out: IC50
Procedure, shortened: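 Striatal membranes from Slc-Hartley guinea pigs were incubated with 0.1 nM [3H]-GR113808 and test compounds in 50 mM Hepes pH 7.4 at 37° C for 30 min; nonspecific binding was defined with 30 μM serotonin. Bound radioactivity was collected by filtration, and IC50 was derived from inhibition of specific binding.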

[5] = molecular target: T3, Human 5-HT4 receptor (5-HT4b) (Homo sapiens, UniProt Q13639); assay: Test Example 3: Human 5-HT4 receptor binding assay, membranes of CHO-K1 cells stably expressing 5-HT4b receptors (Table 99); details: mean value of each group
T3 construct: expressed in transfected cells; membrane preparation
T3 sequence (Q13639 whole entry): as the sequence (Q13639 whole entry) above
Procedure, shortened: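 Radioligand displacement: [3H]-GR113808 (0.1 nM) bound to CHO-K1 5-HT4b membranes for 30 min at 37 °C in Hepes buffer (50 mM, pH 7.4). Specific binding is total minus that with 30 μM serotonin; filter-bound radioactivity counted, IC50 derived from percent inhibition.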

Row | Emax (human 5-HT4b receptor [1]) | pEC50 (human 5-HT4b receptor [1]) | pIC50 (5-HT4 receptor [2]) | Emax (human 5-HT4b receptor [3]) | pEC50 (human 5-HT4b receptor [3]) | pIC50 (5-HT4 receptor [4]) | pIC50 [5] | SMILES
1 | 65% | 7.75 | 7.60 |  |  |  |  | CCc1nn(-c2noc(C3CCN(C4CCN(C(=O)OC)CC4)CC3)n2)c2cc(F)ccc12 [Example 230, methyl 4-[3-(3-ethyl-6-fluoro-1H-indazol-1-yl)-1,2,4-oxadiazol-5-yl]-1,4′-bipiperidine-1′-carboxylate]
2 | 38% | 7.96 | > 7.70 |  |  |  |  | CCc1nn(-c2noc(C3CCN(C[C@@H]4CCCN4C(=O)OC)CC3)n2)c2ccccc12 [Example 178, methyl (2S)-2-({4-[3-(3-ethyl-1H-indazol-1-yl)-1,2,4-oxadiazol-5-yl]piperidin-1-yl}methyl)pyrrolidine-1-carboxylate]
3 | 51% | 7.51 | 7.50 |  |  |  |  | CCc1nn(-c2noc(C3CCN(CC4CCN(C(=O)OC)CC4)CC3)n2)c2cc(F)ccc12 [Example 171, methyl 4-({4-[3-(3-ethyl-6-fluoro-1H-indazol-1-yl)-1,2,4-oxadiazol-5-yl]piperidin-1-yl}methyl)piperidine-1-carboxylate]
4 | 48% | 7.22 | > 7.70 |  |  |  |  | CCc1nn(-c2noc(C3CN(C4CCN(C(=O)OC)CC4)C3)n2)c2ccccc12 [Example 257, methyl 4-{3-[3-(3-ethyl-1H-indazol-1-yl)-1,2,4-oxadiazol-5-yl]azetidin-1-yl}piperidine-1-carboxylate]
5 | 38% | 8.40 | > 7.70 |  |  |  |  | CCc1nn(-c2noc(C3CCN(C[C@@H]4CCCN4C(=O)OCCF)CC3)n2)c2c(F)cccc12 [Example 182, 2-fluoroethyl (2S)-2-({4-[3-(3-ethyl-7-fluoro-1H-indazol-1-yl)-1,2,4-oxadiazol-5-yl]piperidin-1-yl}methyl)pyrrolidine-1-carboxylate]
6 | 92% | 8.19 | > 7.70 |  |  |  |  | CCc1nn(-c2noc(C3CCN(CCCOC)CC3)n2)c2cc(F)ccc12 [Example 92, 3-ethyl-6-fluoro-1-{5-[1-(3-methoxypropyl)piperidin-4-yl]-1,2,4-oxadiazol-3-yl}-1H-indazole]
7 | 58% | 6.82 | 7.40 |  |  |  |  | CC(C)CN1CCC(c2nc(-n3nc(C4CCC4)c4ccccc43)no2)CC1 [Example 115, 3-cyclobutyl-1-{5-[1-{2-methylpropyl)piperidin-4-yl]-1,2,4-oxadiazol-3-yl}-1H-indazole trifluoroacetate]
8 |  |  | > 7.70 |  |  |  |  | CCN[C@H]1C[C@@H](c2nc(-n3nc(CC)c4ccc(F)cc43)no2)C1 [Example 278, cis-N-ethyl-3-[3-(3-ethyl-6-fluoro-1H-indazol-1-yl)-1,2,4-oxadiazol-5-yl]cyclobutanamine]
9 | 49% | 7.50 | > 7.70 |  |  |  |  | CCc1nn(-c2noc(C3CCN(C[C@@H]4CCN(C(=O)OCCF)C4)CC3)n2)c2ccccc12 [Example 195, 2-fluoroethyl (3S)-3-({4-[3-(3-ethyl-1H-indazol-1-yl)-1,2,4-oxadiazol-5-yl]piperidin-1-yl}methyl)pyrrolidine-1-carboxylate]
10 | 68% | 7.28 | 7.58 |  |  |  |  | CCC(C)N1CCC(c2nc(-n3nc(C4CCC4)c4ccccc43)no2)CC1 (centres unmarked) [Example 114, 1-{5-[1-(butan-2-yl)piperidin-4-yl]-1,2,4-oxadiazol-3-yl}-3-cyclobutyl-1H-indazole trifluoroacetate]
11 | 77% | 8.03 | > 7.70 |  |  |  |  | CCc1nn(-c2noc(C3CCN(CCC4CCCO4)CC3)n2)c2cc(F)ccc12 (centres unmarked) [Example 131, 3-ethyl-6-fluoro-1-(5-{1-[2-(tetrahydrofuran-2-yl)ethyl]piperidin-4-yl}-1,2,4-oxadiazol-3-yl)-1H-indazole]
12 | 125% | 8.08 | 7.51 |  |  |  |  | COCCCN1CCC(c2nc(-n3nc(C(C)C)c4ccccc43)no2)CC1 [Example 85, 1-{5-[1-(3-methoxypropyl)piperidin-4-yl]-1,2,4-oxadiazol-3-yl}-3-(propan-2-yl)-1H-indazole]
13 | 83% | 7.53 | 7.59 |  |  |  |  | CCCN1CCC(c2nc(-n3nc(C(C)C)c4ccccc43)no2)CC1 [Example 117, 3-(propan-2-yl)-1-[5-(1-propylpiperidin-4-yl)-1,2,4-oxadiazol-3-yl]-1H-indazole trifluoroacetate]
14 | 26% | 8.10 | > 7.70 |  |  |  |  | CCC(C)N1CCC(c2nc(-n3nc(C4CC4)c4ccccc43)no2)CC1 (centres unmarked) [Example 102, 1-{5-[1-(butan-2-yl)piperidin-4-yl]-1,2,4-oxadiazol-3-yl}-3-cyclopropyl-1H-indazole trifluoroacetate]
15 | 43% | 8.43 | > 7.70 |  |  |  |  | CCc1nn(-c2noc(C3CCN(CCCOC)CC3)n2)c2c(F)cccc12 [Example 95, 3-ethyl-7-fluoro-1-{5-[1-(3-methoxypropyl)piperidin-4-yl]-1,2,4-oxadiazol-3-yl}-1H-indazole]
16 | 81% | 7.92 | 7.62 |  |  |  |  | CCc1nn(-c2noc(C3CCN(CC4CCOCC4)CC3)n2)c2cc(F)ccc12 [Example 134, 3-ethyl-6-fluoro-1-{5-[1-(tetrahydro-2H-pyran-4-ylmethyl)piperidin-4-yl]-1,2,4-oxadiazol-3-yl}-1H-indazole]
17 |  |  | > 7.70 | 73.9% | 8.17 | > 7.70 |  | CCc1nn(-c2noc(C3CCN(CC4CN(C(=O)COC)C4)CC3)n2)c2c(F)cccc12 [Example 224, 1-[3-({4-[3-(3-ethyl-7-fluoro-1H-indazol-1-yl)-1,2,4-oxadiazol-5-yl]piperidin-1-yl}methyl)azetidin-1-yl]-2-methoxyethanone hydrochloride]
18 |  |  |  | 114% | 8.24 |  | > 7.70 | O=C(CO)N1CCC(N2CCC(c3nc(-n4nc(C5CCC5)c5cccc(F)c54)no3)CC2)CC1 [Example 527, 1-{4-[3-(3-cyclobutyl-7-fluoro-1H-indazol-1-yl)-1,2,4-oxadiazol-5-yl]-1,4′-bipiperidin-1′-yl}-2-hydroxyethanone]

Row | SMILES | Emax (human 5-HT4b receptor [1]) | pEC50 (human 5-HT4b receptor [1]) | pIC50 (5-HT4 receptor [2]) | Emax (human 5-HT4b receptor [3]) | pEC50 (human 5-HT4b receptor [3]) | pIC50 (5-HT4 receptor [4]) | pIC50 [5]
19 | CC(C)CN1CCC(c2nc(-n3nc(C(C)C)c4ccccc43)no2)CC1 [Example 98, 1-{5-[1-(2-methylpropyl)piperidin-4-yl]-1,2,4-oxadiazol-3-yl}-3-(propan-2-yl)-1H-indazole trifluoroacetate] | 110% | 7.81 | 7.49 |  |  |  | 
